Columns and labels:
[1] = system: antibodies in sera from SARS patients (sera 1a, 1b, 2, 6, 37, 62, London, SARS-yellow, SARS-green); type: binding, human; design: Binding of serum 6 to linear peptides of protein X1 of SARS-CoV Urbani / Binding of serum 37 to linear peptides of protein X1 of SARS-CoV Urbani / Binding of serum 6 to looped/cyclic peptide (PEPSCAN-ELISA) / Binding of serum 37 to looped/cyclic peptide (PEPSCAN-ELISA) / Binding of serum 37 to looped/cyclic peptides of protein X1 of SARS-CoV Urbani / Binding of serum 6 to linear peptides of protein X2 / Binding of serum 37 to linear peptides of protein X2 / Binding of serum 37 to looped/cyclic peptides of protein X2 of SARS-CoV Urbani / Binding of serum 6 to linear peptides of protein M of SARS-CoV Urbani / Binding of serum 37 to linear peptides of protein M of SARS-CoV Urbani / Binding of serum 6 to looped/cyclic peptides of protein M of SARS-CoV Urbani / Binding of serum 37 to looped/cyclic peptides of protein M of SARS-CoV Urbani / Binding of serum 6 to linear peptides of protein X3 of SARS-CoV Urbani / Binding of serum 37 to linear peptides of protein X3 of SARS-CoV Urbani / Binding of serum 37 to looped/cyclic peptides of protein X3 of SARS-CoV Urbani / Binding of serum 6 to linear peptides of protein X4 of SARS-CoV Urbani / Binding of serum 37 to linear peptides of protein X4 of SARS-CoV Urbani / Binding of serum 37 to looped/cyclic peptides of protein X4 of SARS-CoV Urbani / Binding of serum 6 to linear peptides of protein X5 of SARS-CoV Urbani / Binding of serum 37 to linear peptides of protein X5 of SARS-CoV Urbani / Binding of serum 37 to looped/cyclic peptides of protein X5 of SARS-CoV Urbani / Binding of serum 6 to linear peptides of protein N of SARS-CoV Urbani / Binding of serum 37 to linear peptides of protein N of SARS-CoV Urbani / Binding of serum 6 to linear peptide (PEPSCAN-ELISA) / Binding of serum 1a to looped/cyclic peptides of protein N of SARS-CoV Urbani / Binding of serum 1b to looped/cyclic peptides of protein N of SARS-CoV Urbani / Binding of serum 2 to looped/cyclic peptides of protein N of SARS-CoV Urbani / Binding of serum 6 to looped/cyclic peptides of protein N of SARS-CoV Urbani / Binding of serum 37 to looped/cyclic peptides of protein N of SARS-CoV Urbani / Binding of serum 62 to looped/cyclic peptides of protein N of SARS-CoV Urbani / Binding of serum London to looped/cyclic peptides of protein N of SARS-CoV Urbani / Binding of serum SARS-green to looped/cyclic peptides of protein N of SARS-CoV Urbani: unit not given here
[2] = system: control sera (pooled serum of ten healthy LUMC hospital workers; commercial negative donor pooled serum from the Dutch bloodbank); type: binding, human; design: Binding of Control serum LUMC to linear peptides / Binding of Control serum Blood-bank to linear peptides / Binding of Control serum LUMC to looped peptides / Binding of Control Serum Blood-Bank to Looped peptides / Binding of Control serum LUMC to linear peptides of the protein M of SARS-CoV Urbani / Binding of Control serum Blood-bank to linear peptides of the protein M of SARS-CoV Urbani / Binding of Control serum LUMC to looped peptides of the protein M of SARS-CoV Urbani / Binding of Control Serum Blood-Bank to Looped peptides of the protein M of SARS-CoV Urbani: unit not given here
[3] = system: rabbit serum obtained by immunizing a rabbit with the SARS-CoV strain Frankfurt 1; type: binding; design: Binding of a rabbit serum to linear peptides / Binding of a rabbit serum to looped peptides / Rabbit serum linear peptides / Rabbit serum looped peptides / Binding of a rabbit serum to linear peptides of protein N of SARS-CoV Urbani (Rabbit serum linear peptides) / Binding of a rabbit serum to looped/cyclic peptides of protein N of SARS-CoV Urbani (Rabbit serum looped peptides): unit not given here
[4] = system: recombinant human anti-SARS-CoV antibody 03-018; type: binding; design: Binding of antibody 03-018 to linear peptides of the N protein of SARS-CoV Urbani / Binding of antibody 03-018 to looped/cyclic peptides of the N protein of SARS-CoV Urbani: unit not given here

| Sequence | Binding of serum 1a to linear peptides of protein N of SARS-CoV Urbani [1] | Binding of serum 1a to looped/cyclic peptides of protein N of SARS-CoV Urbani [1] | Binding of serum 1b to linear peptides of protein N of SARS-CoV Urbani [1] | Binding of serum 1b to looped/cyclic peptides of protein N of SARS-CoV Urbani [1] | Binding of serum 2 to linear peptides of protein N of SARS-CoV Urbani [1] | Binding of serum 2 to looped/cyclic peptides of protein N of SARS-CoV Urbani [1] | Binding of serum 6 to looped/cyclic peptides of protein N of SARS-CoV Urbani [1] | Binding of serum 37 to looped/cyclic peptides of protein N of SARS-CoV Urbani [1] | Binding of serum 62 to looped/cyclic peptides of protein N of SARS-CoV Urbani [1] | Binding of serum London to looped/cyclic peptides of protein N of SARS-CoV Urbani [1] | Binding of serum SARS-green to looped/cyclic peptides of protein N of SARS-CoV Urbani [1] | Binding of serum SARS-yellow to looped/cyclic peptides of protein N of SARS-CoV Urbani [1] | Binding of Control Serum Blood-Bank to Looped peptides [2] | Binding of Control serum Blood-bank to linear peptides [2] | Binding of Control serum LUMC to linear peptides [2] | Binding of Control serum LUMC to looped peptides [2] | Binding of a rabbit serum to linear peptides of protein N of SARS-CoV Urbani (Rabbit serum linear peptides) [3] | Binding of a rabbit serum to looped/cyclic peptides of protein N of SARS-CoV Urbani (Rabbit serum looped peptides) [3] | Binding of antibody 03-018 to linear peptides of the N protein of SARS-CoV Urbani [4] | Binding of antibody 03-018 to looped/cyclic peptides of the N protein of SARS-CoV Urbani [4] | other results |
| --- | --- | --- | --- | --- | --- | --- | --- | --- | --- | --- | --- | --- | --- | --- | --- | --- | --- | --- | --- | --- | --- |
| GLPNNTASWFTALTQ | 0.2 | 0.4 | 0.1 | 0.2 | 0.2 | 0.4 | 0.3 | 0.7 | 0.7 | 0.4 | 0.6 | 0.5 | 0.8 | 0.7 | 0.6 | 0.7 | 0.1 | 0.4 | 0.1 | 0.3 | Binding of serum 6 to linear peptides of protein N of SARS-CoV Urbani [1]: 0.1; Binding of serum 37 to linear peptides of protein N of SARS-CoV Urbani [1]: 0.7; Binding of serum 62 to linear peptides of protein N of SARS-CoV Urbani [1]: 0.6; Binding of serum London to linear peptides of protein N of SARS-CoV Urbani [1]: 0.4; Binding of serum SARS-green to linear peptides of protein N of SARS-CoV Urbani [1]: 0.4; Binding of serum SARS-yellow to linear peptides of protein N of SARS-CoV Urbani [1]: 0.4 |
| GNSRNSTPGSSRGNS |  | 0.6 |  | 0.5 |  | 0.4 | 0.4 | 0.5 | 0.5 | 0.3 | 0.1 | 0.5 | 0.6 | 0.8 | 0.7 | 0.7 | 0.2 | 0.8 | 0.1 | 0.2 | Binding of serum 1a to linear peptide (PEPSCAN-ELISA) [1]: 0.7; Binding of serum 1b to linear peptide (PEPSCAN-ELISA) [1]: 0.5; Binding of serum 2 to linear peptide (PEPSCAN-ELISA) [1]: 0.2; Binding of serum 6 to linear peptide (PEPSCAN-ELISA) [1]: 0.2; Binding of serum 37 to linear peptide (PEPSCAN-ELISA) [1]: 0.7; Binding of serum 62 to linear peptide (PEPSCAN-ELISA) [1]: 0.7; Binding of serum London to linear peptide (PEPSCAN-ELISA) [1]: 0.5; Binding of serum SARS-green to linear peptide (PEPSCAN-ELISA) [1]: 0.2; Binding of serum SARS-yellow to linear peptide (PEPSCAN-ELISA) [1]: 0.7 |
| GPEQTQGNFGDQDLI |  | 0.4 |  | 0.4 |  | 0.4 | 0.2 | 0.6 | 0.4 | 0.3 | 0.9 | 0.6 | 0.5 | 0.8 | 0.8 | 0.6 | 0.2 | 0.3 | 0.1 | 0.2 | Recognition of the peptide by sera of SARS-CoV infected individuals, and form (linear, looped/cyclic) in which it is recognized [1]: recognized in linear form |
| GPQSNQRSAPRITFG | 0.2 | 0.3 | 0.1 | 0.2 | 0.2 | 0.3 | 0.3 | 0.6 | 0.4 | 0.4 | 0.3 | 0.8 | 0.7 | 0.6 | 0.5 | 0.8 |  |  |  |  | Binding of serum 6 to linear peptides of protein N of SARS-CoV Urbani [1]: 0.1; Binding of serum 37 to linear peptides of protein N of SARS-CoV Urbani [1]: 0.6; Binding of serum 62 to linear peptides of protein N of SARS-CoV Urbani [1]: 0.7; Binding of serum London to linear peptides of protein N of SARS-CoV Urbani [1]: 0.4; Binding of serum SARS-green to linear peptides of protein N of SARS-CoV Urbani [1]: 0.4; Binding of serum SARS-yellow to linear peptides of protein N of SARS-CoV Urbani [1]: 0.5; Recognition of the peptide by the rabbit serum [3]: also recognized; Recognition of the peptide by antibody 03-018 [4]: recognized |
